# Laboratory results: patent US11547681B2, “N-acylethanolamide derivatives and uses thereof” (ELIEM THERAPEUTICS, INC., priority 2016, dated 2023)
# Tests used:
# [1] = in vitro; conditions: male, Sprague-Dawley, rat; for Concentration, analyte PEA / % Remaining of Initial (n = 1): 1 μM; for microsomal CLint at 1 μM: s9, CLint; for half-life at 1 μM: s9, Half-life
# Outline: (§1)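 LC-MS/MS tracked both dosed prodrug and expected drug PEA over 60 min (0, 10, 20, 30, 60 min samples) at 37 °C. Incubations held 1 μM test article in intestinal S9, cofactor-initiated after warm-up, stopped with ice-cold acidified acetonitrile.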
# [2] = in vitro; conditions: both, human; for Concentration, analyte PEA / % Remaining of Initial (n = 1): 1 μM; for microsomal CLint at 1 μM: s9, CLint; for half-life at 1 μM: s9, Half-life
# Outline: as §1
# [3] = in vitro; conditions: male, CD-1, mouse; for Concentration, analyte PEA / % Remaining of Initial (n = 1): 1 μM; for microsomal CLint at 1 μM: s9, CLint; for half-life at 1 μM: s9, Half-life
# Outline: (§2)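 Half-lives are based on fitting compound loss over 0, 10, 20, 30 and 60 min to a single exponential, with amounts expressed against the zero-time sample. Reactions hold 1 μM substrate in S9 at 37 °C, start on cofactor addition, and are stopped with cold acetonitrile containing formic acid.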
# [4] = in vitro; conditions: male, Beagle, dog, 1 μM
# Outline: as §2
smiles,measurement,setting,value
CCCCC/C=C\C/C=C\CCCCCCCC(=O)OCC(COC(=O)CCC(=O)OCCNC(=O)CCCCCCCCCCCCCCC)OC(=O)CCCCCCC/C=C\C/C=C\CCCCC (stereo not shown) [Compound I-13],"Concentration, analyte PEA",[1]; 0 min,0 nM
same,"Concentration, analyte PEA",[1]; 10 min,20 nM
same,"Concentration, analyte PEA",[1]; 20 min,48 nM
same,"Concentration, analyte PEA",[1]; 30 min,64 nM
same,"Concentration, analyte PEA",[1]; 60 min,92 nM
same,% Remaining of Initial (n = 1),"[1]; s9, 0 h",100%
same,% Remaining of Initial (n = 1),"[1]; s9, 10 min",80%
same,% Remaining of Initial (n = 1),"[1]; s9, 20 min",82%
same,% Remaining of Initial (n = 1),"[1]; s9, 0.5 h",81%
same,% Remaining of Initial (n = 1),"[1]; s9, 1 h",55%
same,microsomal CLint at 1 μM,[1],< 11.6 µL/min/mg
same,microsomal CLint at 1 μM,[1]; calculated (in parentheses),8.59 µL/min/mg
same,half-life at 1 μM,[1],> 1 h
same,half-life at 1 μM,[1]; calculated (in parentheses),1.35 h
same,"Concentration, analyte PEA",[2]; 0 min,0 nM
same,"Concentration, analyte PEA",[2]; 10 min,10 nM
same,"Concentration, analyte PEA",[2]; 20 min,14 nM
same,"Concentration, analyte PEA",[2]; 30 min,18 nM
same,"Concentration, analyte PEA",[2]; 60 min,31 nM
same,% Remaining of Initial (n = 1),"[2]; s9, 0 h",100%
same,% Remaining of Initial (n = 1),"[2]; s9, 10 min",86%
same,% Remaining of Initial (n = 1),"[2]; s9, 20 min",86%
same,% Remaining of Initial (n = 1),"[2]; s9, 0.5 h",86%
same,% Remaining of Initial (n = 1),"[2]; s9, 1 h",59%
same,microsomal CLint at 1 μM,[2],< 11.6 µL/min/mg
same,microsomal CLint at 1 μM,[2]; calculated (in parentheses),7.57 µL/min/mg
same,half-life at 1 μM,[2],> 1 h
same,half-life at 1 μM,[2]; calculated (in parentheses),1.53 h
same,"Concentration, analyte PEA",[3]; 0 min,12 nM
same,"Concentration, analyte PEA",[3]; 10 min,50 nM
same,"Concentration, analyte PEA",[3]; 20 min,73 nM
same,"Concentration, analyte PEA",[3]; 30 min,96 nM
same,"Concentration, analyte PEA",[3]; 60 min,89 nM
same,% Remaining of Initial (n = 1),"[3]; s9, 0 h",100%
same,% Remaining of Initial (n = 1),"[3]; s9, 10 min",97%
same,% Remaining of Initial (n = 1),"[3]; s9, 20 min",71%
same,% Remaining of Initial (n = 1),"[3]; s9, 0.5 h",81%
same,% Remaining of Initial (n = 1),"[3]; s9, 1 h",57%
same,microsomal CLint at 1 μM,[3],< 11.6 µL/min/mg
same,microsomal CLint at 1 μM,[3]; calculated (in parentheses),9.51 µL/min/mg
same,half-life at 1 μM,[3],> 1 h
same,half-life at 1 μM,[3]; calculated (in parentheses),1.22 h
same,"Concentration, analyte PEA",[4]; 0 min,58 nM
same,"Concentration, analyte PEA",[4]; 10 min,95 nM
same,"Concentration, analyte PEA",[4]; 20 min,100 nM
same,"Concentration, analyte PEA",[4]; 30 min,89 nM
same,"Concentration, analyte PEA",[4]; 60 min,170 nM
same,% Remaining of Initial (n = 1),"[4]; s9, 0 h",100%
same,% Remaining of Initial (n = 1),"[4]; s9, 10 min",67%
same,% Remaining of Initial (n = 1),"[4]; s9, 20 min",63%
same,% Remaining of Initial (n = 1),"[4]; s9, 0.5 h",46%
same,% Remaining of Initial (n = 1),"[4]; s9, 1 h",49%
